In ChEMBL document CHEMBL5154911, “Palmatine Derivatives as Potential Antiplatelet Aggregation Agents via Protein Kinase G/Vasodilator-Stimulated Phosphoprotein and Phosphatidylinositol 3-Kinase/Akt Phosphorylation” (J Med Chem, 2022):
Calls of active or inactive are those of the source. No cut-off for these calls is given here.

What was measured:
[1] = Antiplatelet activity against ADP-induced C57BL/6J mouse platelet aggregation assessed as maximal aggregration rate at 10 uM preincubated for 10 mins followed by ADP addition relative to control; format: functional
[2] = Cytotoxicity against human HUVEC cells assessed as cell vaibility at 100 uM by MTS assay; format: toxicity, cell-based; conditions: read-out: Activity
[3] = system: Platelet; experiment: Antiplatelet activity against ADP-induced C57BL/6J mouse platelet aggregation assessed as reduction in integrin alphaIIbbeta3 surface levels by measuring increase median fluorescence intensities at 10 uM incubated for 10 min by flow cytometry analysis; format: functional, cell-based
[4] = system: Platelet; experiment: Antiplatelet activity against ADP-induced C57BL/6J mouse platelet aggregation assessed as reduction in P-selectin surface levels by measuring increase median fluorescence intensities at 10 uM incubated for 10 min by flow cytometry analysis; format: functional, cell-based
[5] = system: Platelet; experiment: Inhibition of ADP-induced Akt activation in C57BL/6J mouse platelet assessed as reduction of AKT phosphorylation at Ser473 by western blot analysis; format: cell-based
[6] = system: Platelet; experiment: Antiplatelet activity against ADP-induced C57BL/6J mouse platelet aggregation assessed as reduction on platelet aggregation at 2.5 to 10 uM preincubated for 10 mins followed by ADP addition; format: functional, cell-based; conditions: dose 2.5-10 µM, DDE = dose-dependent effect
[7] = system: Mus musculus; experiment: Antiplatelet activity against ADP-induced C57BL/6J mouse platelet aggregation assessed as reduction in P-selectin surface levels at 100 mg/kg, po measured after 2 weeks by flow cytometry analysis; format: functional, organism-based
[8] = system: Mus musculus; experiment: Antiplatelet activity against ADP-induced C57BL/6J mouse platelet aggregation assessed as reduction in integrin alphaIIbbeta3 surface level at 100 mg/kg, po measured after 2 weeks by flow cytometry analysis; format: functional, organism-based
[9] = system: Platelet; experiment: Inhibition of ADP-induced Akt activation in C57BL/6J mouse platelets assessed as reduction in phosphorylation Akt level at Ser473 at 100 mg/kg, po measured after 2 weeks by western blot analysis; format: organism-based
[10] = system: Mus musculus; experiment: Antithrombotic activity in BALB/c mouse model of carrageenan-induced thrombus formation assessed as inhibition of thrombosis rate in tail at 100 mg/kg, iv measured after 14 days; format: functional, organism-based; conditions: time 14.0 day
[11] = system: Mus musculus; experiment: Antiplatelet activity against ADP-induced C57BL/6J mouse platelet aggregation assessed as inhibition of platelet aggregation at 100 mg/kg, po measured after 2 weeks; format: functional, organism-based
[12] = system: Lung; experiment: Antithrombotic activity in BALB/c mouse model of carrageenan-induced thrombus formation assessed as reduced thrombus formation in lung at 100 mg/kg, iv measured after 14 days by H and E staining based assay; format: functional, organism-based; conditions: time 14.0 day
[13] = system: Mus musculus; experiment: Antithrombotic activity in BALB/c mouse model of carrageenan-induced thrombus formation assessed as reduced serum P-selectin level at 100 mg/kg, iv measured after 14 days by ELISA; format: functional, organism-based; conditions: time 14.0 day

Compound	%max [1] [%]	also measured
CCCCCNc1c(OC)ccc2cc3[n+](cc12)CCc1cc(OC)c(OC)cc1-3.[Cl-]	37.8	–
COc1cc2c(cc1OC)-c1cc3ccc(OC)c(OCc4ccc(C)cc4)c3c[n+]1CC2.[Br-]	35.2	–
COc1cc2c(cc1OC)-c1cc3ccc(OC)c(OC(=O)c4ccccc4)c3c[n+]1CC2.[Cl-]	42.6	–
CCCC(=O)Nc1c(OC)ccc2cc3[n+](cc12)CCc1cc(OC)c(OC)cc1-3.[Cl-]	34.3	–
COc1cccc(COc2c(OC)ccc3cc4[n+](cc23)CCc2cc(OC)c(OC)cc2-4)c1.[Br-]	34.8	viability at 100 µM [2]: 90%
COc1cc(COc2c(OC)ccc3cc4[n+](cc23)CCc2cc(OC)c(OC)cc2-4)cc(OC)c1.[Br-]	38.4	–
CCCCCCCOc1c(OC)ccc2cc3[n+](cc12)CCc1cc(OC)c(OC)cc1-3.[Br-]	35.3	–
COc1cc2c(cc1OC)-c1cc3ccc(OC)c(OC(=O)c4ccccc4C)c3c[n+]1CC2.[Cl-]	38	–
COc1cc2c(cc1OC)-c1c(Cc3ccccc3C#N)c3ccc(OC)c(OC)c3c[n+]1CC2.[Br-]	40.2	–
C=CCOc1c(OC)ccc2cc3[n+](cc12)CCc1cc(OC)c(OC)cc1-3.[Br-]	34.3	–
COc1cc2c(cc1OC)-c1cc3ccc(OC)c(OCc4cccc(Br)c4)c3c[n+]1CC2.[Br-]	39.3	–
COc1cc2c(cc1OC)-c1cc3ccc(OC)c(OCC4CCCC4)c3c[n+]1CC2.[Br-]	35.4	–
COc1cc2c(cc1OC)-c1cc3ccc(OC)c(OCC4CCCCC4)c3c[n+]1CC2.[Br-]	33.9	–
C/C=C/Cc1c2[n+](cc3c(OC)c(OC)ccc13)CCc1cc(OC)c(OC)cc1-2.[Br-]	40.3	–
CCC(=O)Nc1c(OC)ccc2cc3[n+](cc12)CCc1cc(OC)c(OC)cc1-3.[Cl-]	34.5	–
COc1cc2c(cc1OC)-c1cc3ccc(OC)c(NC(=O)c4cccc(F)c4)c3c[n+]1CC2.[Cl-]	40.6	–
COc1ccc(CNc2c(OC)ccc3cc4[n+](cc23)CCc2cc(OC)c(OC)cc2-4)cc1.[Cl-]	35.6	–
COc1cc2c(cc1OC)-c1cc3ccc(OC)c(NC(=O)C45CC6CC(CC(C6)C4)C5)c3c[n+]1CC2.[Cl-]	34.7	–
COc1cc2c(cc1OC)-c1cc3ccc(OC)c(NC(=O)C4CCCC4)c3c[n+]1CC2.[Cl-]	34.9	–
CCOc1c(OC)ccc2cc3[n+](cc12)CCc1cc(OC)c(OC)cc1-3.[Br-]	34.6	–
COc1cc2c(cc1OC)-c1cc3ccc(OC)c(OC)c3c[n+]1CC2 [PALMITINE]	38.4	–

Compound	%max [1] [%]	also measured
CCCCOc1c(OC)ccc2cc3[n+](cc12)CCc1cc(OC)c(OC)cc1-3.[Br-]	34.4	–
COc1cc2c(cc1OC)-c1cc3ccc(OC)c(NCc4cccc(C#N)c4)c3c[n+]1CC2.[Cl-]	36.3	–
COc1cc2c(cc1OC)-c1cc3ccc(OC)c(OCc4ccccc4C)c3c[n+]1CC2.[Br-]	37.8	–
COc1cc2c(cc1OC)-c1c(C3C=CCCC3)c3ccc(OC)c(OC)c3c[n+]1CC2.[Br-] (centres undefined)	39.8	–
Br.COc1cc2c(cc1OC)-c1c(Cc3ccc([N+](=O)[O-])cc3)c3ccc(OC)c(OC)c3c[n+]1CC2	38.6	–
COc1cc2c(cc1OC)-c1cc3ccc(OC)c(OCc4cccc(F)c4)c3c[n+]1CC2.[Br-]	35.7	–
COc1cc2c(cc1OC)-c1cc3ccc(OC)c(NC(=O)C4CCCCC4)c3c[n+]1CC2.[Cl-]	37.7	–
COc1cc2c(cc1OC)-c1c(Cc3cccc(C)c3)c3ccc(OC)c(OC)c3c[n+]1CC2.[Br-]	41.4	–
COc1cc2c(cc1OC)-c1cc3ccc(OC)c(NCc4ccc(Cl)cc4)c3c[n+]1CC2.[Cl-]	31.6	Activity [3]: Active; Activity [4]: Active; inhibition [5]: Active; Activity [6]: Dde
COC(=O)/C=C/c1ccc(Cc2c3[n+](cc4c(OC)c(OC)ccc24)CCc2cc(OC)c(OC)cc2-3)cc1.[Br-]	38.2	–
COc1cc2c(cc1OC)-c1cc3ccc(OC)c(OCc4ccccc4C#N)c3c[n+]1CC2.[Br-]	30.5	viability at 100 µM [2]: < 60%; Activity [3]: Active; Activity [4]: Active; inhibition [5]: Active; Activity [6]: Dde
CCCCC(=O)Nc1c(OC)ccc2cc3[n+](cc12)CCc1cc(OC)c(OC)cc1-3.[Cl-]	37.2	–
CCC(=O)Oc1c(OC)ccc2cc3[n+](cc12)CCc1cc(OC)c(OC)cc1-3.[Cl-]	40.1	–
COc1ccc2cc3[n+](cc2c1OC)CCc1cc2c(cc1-3)OCO2 [BERBERINE]	27.5	inhibition [5]: Active; Activity [7]: Active; Activity [8]: Active; inhibition [9]: Active; Activity [10]: Active; Activity [11]: Active; Activity [12]: Active; Activity [13]: Active
COc1cc2c(cc1OC)-c1cc3ccc(OC)c(OCc4ccc(C(C)C)cc4)c3c[n+]1CC2.[Br-]	37.5	–
COc1cc2c(cc1OC)-c1cc3ccc(OC)c(OCc4ccccc4)c3c[n+]1CC2.[Br-]	36.9	–
COc1cc2c(cc1OC)-c1cc3ccc(OC)c(OS(=O)(=O)c4ccccc4)c3c[n+]1CC2.O=[S-](=O)c1ccccc1	39.4	–
COc1cc2c(cc1OC)-c1cc3ccc(OC)c(NCc4ccccc4)c3c[n+]1CC2.[Cl-]	37.3	–
COc1cc2c(cc1OC)-c1cc3ccc(OC)c(NCc4ccc(F)cc4)c3c[n+]1CC2.[Cl-]	34.2	–
COc1cc2c(cc1OC)-c1c(Cc3cc(C)cc(C)c3)c3ccc(OC)c(OC)c3c[n+]1CC2.[Br-]	39.4	–
COc1cc2c(cc1OC)-c1cc3ccc(OC)c(OCC4CCC4)c3c[n+]1CC2.[Br-]	34.4	–

Compound	%max [1] [%]	also measured
COc1cc2c(cc1OC)-c1cc3ccc(OC)c(OCCC4CCCCC4)c3c[n+]1CC2.[Br-]	36.5	–
COc1cc2c(cc1OC)-c1cc3ccc(OC)c(OCc4cccc(C#N)c4)c3c[n+]1CC2.[Br-]	35.5	–
COc1cc2c(cc1OC)-c1cc3ccc(OC)c(OCc4ccc(C(F)(F)F)cc4)c3c[n+]1CC2.[Br-]	37.7	–
COc1cc2c(cc1OC)-c1cc3ccc(OC)c(NC(=O)c4ccc(F)cc4)c3c[n+]1CC2.[Cl-]	37.1	–
C=CCc1c2[n+](cc3c(OC)c(OC)ccc13)CCc1cc(OC)c(OC)cc1-2.[Br-]	36.5	–
CCCCNc1c(OC)ccc2cc3[n+](cc12)CCc1cc(OC)c(OC)cc1-3.[Cl-]	33.4	–
COc1ccc(CNc2c(OC)ccc3cc4[n+](cc23)CCc2cc(OC)c(OC)cc2-4)c(OC)c1.[Cl-]	33.5	–
CCCC(=O)Oc1c(OC)ccc2cc3[n+](cc12)CCc1cc(OC)c(OC)cc1-3.[Cl-]	39.8	–
COc1cc2c(cc1OC)-c1cc3ccc(OC)c(OCC(C)C)c3c[n+]1CC2.[Br-]	33.4	–
Br.COc1cc2c(cc1OC)-c1cc3ccc(OC)c(OCc4ccccc4[N+](=O)[O-])c3c[n+]1CC2	39.7	–
COc1ccc(C(=O)Nc2c(OC)ccc3cc4[n+](cc23)CCc2cc(OC)c(OC)cc2-4)cc1.[Cl-]	38.5	–
Br.COc1cc2c(cc1OC)-c1cc3ccc(OC)c(OCc4ccc([N+](=O)[O-])cc4)c3c[n+]1CC2	37.9	–
COc1cc2c(cc1OC)-c1cc3ccc(OC)c(NC(=O)c4ccccc4)c3c[n+]1CC2.[Cl-]	35.8	–
COc1cc2c(cc1OC)-c1c(Cc3ccc(C)cc3)c3ccc(OC)c(OC)c3c[n+]1CC2.[Br-]	38.3	–
COc1cc2c(cc1OC)-c1cc3ccc(OC)c(NCc4ccc(C)cc4)c3c[n+]1CC2.[Cl-]	33.2	–
Br.COc1cc2c(cc1OC)-c1cc3ccc(OC)c(OCc4cccc([N+](=O)[O-])c4)c3c[n+]1CC2	33.3	–
COc1cc2c(cc1OC)-c1cc3ccc(OC)c(OCc4ccc(C#N)cc4)c3c[n+]1CC2.[Br-]	42.1	–
COc1cc2c(cc1OC)-c1cc3ccc(OC)c(OCC4CC4)c3c[n+]1CC2.[Br-]	30.4	viability at 100 µM [2]: 90%; Activity [3]: Active; Activity [4]: Active; inhibition [5]: Active; Activity [6]: Dde
COc1cc2c(cc1OC)-c1cc3ccc(OC)c(OS(=O)(=O)c4ccc([N+](=O)[O-])cc4)c3c[n+]1CC2.O=[SH](=O)c1ccccc1	37.7	–
